Where two headings read alike, the source gives them in different places.
Key:
maize elite inbred N46 = assay: Pre-harvest ear injection, then Agrobacterium-mediated transformation, inbred N46; type: in vivo; conditions: for percent of transformed colonies relative to the no-infusion control (in words): pre-harvest ear injection
Description: (§1) Ears from greenhouse-grown or field-grown maize elite inbreds, P38 and N46, were treated with one of the following agents or combinations of agents at three days after pollination: dicamba, hormone cocktail, 2,4-D (2,4-dichlorophenoxyacetic acid), callus medium, water, ABA, Pluronic F68, proline mix, ACC, AVG, salts cocktail 4, salts cocktail 2 (Gamborg et al. (1968) Exp. Cell Res. 50:151), salts cocktail 1 (Murashige and Skoog (1962) Physiol. Plant. 15:473), salts cocktail 3 (Chu et al. (1975) Scientia Sinic. 18:659), 2,4D+salts cocktail 1, 2,4-D+salts cocktail 3, 2,4-D+dicamba and dicamba+ACC. The solutions were filter sterilized before applying to the ears at a rate of 10 mL/ear. The solutions were applied to the ears by injecting between the silks and husks at three days post pollination. Care was taken not to disrupt the ears.
(§2) Agrobacterium-mediated transformation of maize was also employed. See, U.S. application Ser. No. 08/788,018, herein incorporated by reference.
(§3) The ear injection was conducted as described in Example I. Other synthetic auxins were tested for their effects on the transformation of N46 and P38 maize.
(§4) An endogenous plant growth regulator, abscisic acid (ABA), and other compounds known to influence plant growth were tested for their effects on maize transformation when applied to ears at four days after pollination using the injection method described in Example I. Additionally, the effect of the injection of water was also tested. […] ACC is a product of the reaction catalyzed by ACC synthase and a substrate of the reaction catalyzed by ACC oxidase, the ethylene-forming enzyme. AVG, on the other hand, is an inhibitor of ACC synthase.
Several nitrogen-containing treatments were applied to ears at three days after pollination. The treatments employed are salt formulations that are commonly used in plant tissue culture media including salts cocktail 4, salts cocktail 2, salts cocktail 1 and salts cocktail 3. […]

maize elite inbred P38 [1] = assay: Pre-harvest ear injection, then Agrobacterium-mediated transformation, inbred P38; type: in vivo
Description: as §1, §2, §3, §4
Several nitrogen-containing treatments were applied to ears at three days after pollination. The treatments employed are salt formulations that are commonly used in plant tissue culture media including salts cocktail 4, salts cocktail 2, salts cocktail 1 and salts cocktail 3.
Finally, some combination treatments were examined for their effects on the transformation of N46 and P38 maize (Table 7).

maize elite inbred P38 [2] = test system: maize elite inbred P38
Description: as §1
(§5) For transformation by particle bombardment, maize ears were harvested at ten days after pollination and surface sterilized in 50% CHLOROX™ laundry bleach plus 0.5% Tween 20 surfactant for 20 minutes, and rinsed two times with sterile water. The immature embryos were excised and placed embryo axis side down (scutellum side up), 25 embryos per plate, on 604 medium, incubated at 28° C. in the dark for three days. Prior to bombardment, all embryos were transferred to plates containing 604 medium and 15% sucrose and then aligned within the 2.5-cm target zone in preparation for bombardment. Al media recipes are in the Table 10-18.
A plasmid vector comprising the coding region of uidA operably linked to a ubiquitin promoter was made. This plasmid DNA plus plasmid DNA containing a BAR selectable marker gene operably linked to the double 35S promoter was precipitated onto 1.1 μm (average diameter) tungsten pellets using a CaCl2 precipitation procedure as follows:
The final mixture was sonicated briefly and allowed to incubate under constant vortexing for 10 minutes. After the precipitation period, the tubes were centrifuged briefly, liquid removed, washed with […] 100% ethanol, and centrifuged for 30 seconds. Again the liquid was removed, and 60 μL 100% ethanol was added to the final tungsten particle pellet. For particle gun bombardment, the tungsten/DNA particles were briefly sonicated and 10 μL spotted onto the center of each macrocarrier and allowed to dry about two minutes before bombardment.
(§6) The sample plates were bombarded at level #4 in a Biorad PDS-1000 Helium gun. All samples received a single shot at 650 PSI, with a total of six aliquots taken from each tube of prepared particles/DNA. Following bombardment the embryos were maintained on 604 medium +15% sucrose for three days in the dark, and then transferred to 604S medium with 3 mg/L bialaphos, maintained for three weeks on 3 mg/L bialaphos, and then transferred to 604J at 5 mg/L bialaphos. Once herbicide-resistant colonies were well established and ready for regeneration, approximately eight weeks after bombardment, the herbicide-resistant colonies were transferred to 288O regeneration medium containing 3 mg/L bialaphos, maintained in the dark or seven days, and then transferred to the light at 28° C. for shoot formation and elongation. Callus response, colony and plant recovery and GUS gene expression were monitored during the course of the experiments.
The effects of injecting into ears three days after pollination 10 mL of a 100 μM of dicamba, an auxin analogue, on maize transformation was investigated.

maize immature embryos = conditions: for 21 Day Callus Response / 42 Day Callus Response / Colonies to Plants / Colonies to Regeneration / Colonies with GUS Expression: 100 μM ear pre-treatment
Description: as §5, §6
Prior to bombardment, freshly excised embryos were placed onto either 560P, 601H, or 604 medium and incubated at 28° C. in the dark for three days. Prior to bombardment, all embryos were transferred to 604 with 15% sucrose. […] Colonies were transferred to regeneration medium containing 3 mg/L Bialaphos after 8-9 weeks in culture.

maize ears = assay: Lanolin-paste application to ears, then particle bombardment transformation; type: in vivo; conditions: for 21 Day Callus Response / 42 Day Callus Response / Regenerable Colonies / Plants Transformed: 0.5% in lanolin paste on half an ear, three days after pollination; for Plants Transformed: particle bombardment; for recovery of regenerable colonies and transformed plants (in words): lanolin paste, versus lanolin controls and non-treated control
Description: Transformation-enhancing compounds were also introduced via lanolin. kLanolin paste was typically applied at a mass of 1 gram per ear. Husks were peeled back, but not removed, silks were removed, and the lanolin mixed with the compound was applied to the pericarp of the developing seed using a spatula. Ears were divided into halves longitudinally: one half would received lanolin with the compound and the other half received only lanolin.
Al media recipes are in the Table 10-18.
The effects of pre-harvest ear treatments of zeatin riboside and 2,4-D on maize transformation were investigated. Both agents were applied to separate ears at three days after pollination in a lanolin paste. The method employed for applying the transformation-enhancing agents of the invention to ears in lanolin paste is described in Example I. Ears were divided into halves longitudinally with one half of the ear receiving lanolin with zeatin riboside or 2,4-D and the other half receiving only lanolin. An additional ear that was not treated was used as a control.

[3] = Table 6, ear injection four days after pollination
[4] = 100 μM ear injection three days after pollination, of 385 embryos
[5] = 10 mL of 100 μM injected into ears three days after pollination, of 385 embryos
[6] = initial culture medium 560P, 79 embryos
[7] = initial culture medium 601H, 84 embryos
[8] = initial culture medium 604, 128 embryos
[9] = Table 5, ear injection three days after pollination, 10 mL/ear

Compound: CC1=CC(=O)CC(C)(C)[C@@]1(O)/C=C/C(C)=C\C(=O)O [ABA, abscisic acid]
- Number of GUS Positive Colonies (maize elite inbred N46; [3]): 25
- Percent Colony Transformation (maize elite inbred N46; [3]): 20%
- percent of transformed colonies relative to the no-infusion control (in words) (maize elite inbred N46): largest increase in percent colony transformation above the control
- Number of GUS Positive Colonies (maize elite inbred P38 [1]; [3]): 0
- Percent Colony Transformation (maize elite inbred P38 [1]; [3]): 0%

Compound: COc1c(Cl)ccc(Cl)c1C(=O)O [dicamba]
- Colonies Expressing GUS (maize elite inbred P38 [2]; [4]): 8.6%
- Colonies to Plants (maize elite inbred P38 [2]; [4]): 4.2%
- Colonies to Regeneration (maize elite inbred P38 [2]; [4]): 29.1%
- Plants Transformed (maize elite inbred P38 [2]; 100 μM ear injection three days after pollination, particle bombardment, of 385 embryos): 3.11%
- colonies that produced escapes (maize elite inbred P38 [2]; 100 μM pre-treatment, of the plants recovered): two
- 21 Day Callus Response (maize elite inbred P38 [2]; [5]): 37.9%
- 42 Day Callus Response (maize elite inbred P38 [2]; [5]): 40%
- 56 Day Callus Response (maize elite inbred P38 [2]; [5]): 32.2%
- Type I embryogenic callus response rate versus non pre-treated control (in words) (maize elite inbred P38 [2]; ears pre-treated with 100 μM): higher early in the experiment, and was maintained over the course of the study
- 21 Day Callus Response (maize immature embryos; [6]): 12.7%(10)
- 42 Day Callus Response (maize immature embryos; [6]): 24%(19)
- Colonies to Plants (maize immature embryos; [6]): 1.3%(1)
- Colonies to Regeneration (maize immature embryos; [6]): 2.5%(2)
- Colonies with GUS Expression (maize immature embryos; [6]): 2.5%(2)
- 21 Day Callus Response (maize immature embryos; [7]): 17.9%(16)
- 42 Day Callus Response (maize immature embryos; [7]): 16.5%(14)
- Colonies to Plants (maize immature embryos; [7]): 0%
- Colonies to Regeneration (maize immature embryos; [7]): 4.8%(4)
- Colonies with GUS Expression (maize immature embryos; [7]): 2.4%(2)
- 21 Day Callus Response (maize immature embryos; [8]): 23.4%(30)
- 42 Day Callus Response (maize immature embryos; [8]): 33%(42)
- Colonies to Plants (maize immature embryos; [8]): 0%
- Colonies to Regeneration (maize immature embryos; [8]): 11.7%(15)
- Colonies with GUS Expression (maize immature embryos; [8]): 4.7%(6)
- colonies capable of regeneration (maize immature embryos; 100 μM pre-treatment / 560P medium): one
- Number of GUS Positive Colonies (maize elite inbred N46; [9]): 89
- Percent Colony Transformation (maize elite inbred N46; [9]): 9.50%
- percent of transformed colonies relative to the no-infusion control (in words) (maize elite inbred N46): superior transformation results
- Number of GUS Positive Colonies (maize elite inbred P38 [1]; [9]): 11
- Percent Colony Transformation (maize elite inbred P38 [1]; [9]): 1.10%

Compound: C/C(=C\CNc1ncnc2c1ncn2[C@@H]1O[C@H](CO)[C@@H](O)[C@H]1O)CO [Zeatin riboside, zeatin riboside]
- 21 Day Callus Response (maize ears): 9.4%
- 42 Day Callus Response (maize ears): 9.4%
- Regenerable Colonies (maize ears): 0.6%
- Plants Transformed (maize ears): 0.6%
- recovery of regenerable colonies and transformed plants (in words) (maize ears): Regenerable colonies and transformed maize plants were recovered

Compound: NC1(C(=O)O)CC1 [ACC, aminocyclopropane-1-carboxylic acid]
- Number of GUS Positive Colonies (maize elite inbred N46; [3]): 12
- Percent Colony Transformation (maize elite inbred N46; [3]): 6.80%
- Number of GUS Positive Colonies (maize elite inbred P38 [1]; [3]): 0
- Percent Colony Transformation (maize elite inbred P38 [1]; [3]): 0%

Compound: O=C(O)COc1ccc(Cl)cc1Cl [2,4-D, 2,4-dichlorophenoxyacetic acid]
- Number of GUS Positive Colonies (maize elite inbred N46; [9]): 4
- Percent Colony Transformation (maize elite inbred N46; [9]): 2.70%
- Number of GUS Positive Colonies (maize elite inbred P38 [1]; [9]): 2
- Percent Colony Transformation (maize elite inbred P38 [1]; [9]): 4.20%
- percent of transformed colonies relative to the no-infusion control (in words) (maize elite inbred P38 [1]; pre-harvest ear injection): significantly greater percentages of transformed colonies than the control
- 21 Day Callus Response (maize ears): 15.4%
- 42 Day Callus Response (maize ears): 12.5%
- Regenerable Colonies (maize ears): 1.5%
- Plants Transformed (maize ears): 1.5%
- recovery of regenerable colonies and transformed plants (in words) (maize ears): Regenerable colonies and transformed maize plants were recovered

— patent US6444470B1, “Transformation-enhancing compositions and methods of use” (Pioneer Hi-Bred International, Inc., priority 1999, dated 2002)
